In patent US11752115B2, “PPAR-alpha agonist treatment of neuropsychiatric disorders” (THE BOARD OF TRUSTEES OF THE UNIVERSITY OF ILLINOIS, priority 2017, dated 2023):
Like-named read-outs stand apart in the source and are kept apart here.

How the values were obtained:
SI mice [1] = experiment: Locomotor activity (Example 1); format: in vivo; conditions: PEA 5, 10, 20 mg/kg i.p., G7 10 mg/kg i.p., G6 3 mg/kg i.p., FIN 50 mg/kg s.c.
Protocol: Locomotor activity. […] Horizontal sensors beam interruptions measured horizontal activity for a total of 10 min.

[2] = tested on: allopregnanolone (Allo) levels; experiment: Brain neurosteroid measurements (GC-MS): Allo; format: in vivo, mice; conditions: for Allo content in the olfactory bulb vs. PEA-treated mice (block of PEA effect): PEA 10 mg/kg i.p. 1 h before sacrifice
Protocol: (§1) Brain neurosteroid measurements. Extraction, derivatization and quantification of unconjugated neurosteroids was described previously (32). Steroids were extracted and then purified and separated by high-performance liquid chromatography (HPLC) after addition of deuterium-labeled internal standards (25). The aqueous phase (2 ml) containing sulfated neurosteroids underwent a solvolysis. After derivatization, gas chromatography-mass spectrometry analysis in the standard electron impact mode as previously reported (24, 25).

SI mice [3] = experiment: Elevated plus maze; format: in vivo; conditions: for prevention of the anxiolytic effect of PEA, vs. PEA 10 mg/kg (FIG. 3D): PEA 10 mg/kg i.p. 1 h before test; for time spent in the open arms (increase vs vehicle-treated SI mice): […] before test
Protocol: Elevated plus maze. Elevated plus maze tests were performed as previously (28). Mice chose between entering open or closed arms that extend from a central platform. An arm entry was scored when four legs were within the arm. Behavior was recorded for 5 min. The time spent and the number of open arm entries were used as index of anxiety-like behavior.

[4] = tested on: cannabinoid receptor type 1 (CB1); conditions: direct activation of CB1 (Vallée et al., 2014); cited from earlier work
[5] = tested on: early and late adolescent SI mice; conditions: for time after which aggression rebounded (duration of anti-aggressive effect): early and late adolescent SI mice; for EC50 dose, reduction of aggression: i.p., 60 min before test
Protocol: Resident-Intruder Test. To test aggression, a male intruder mouse of the same strain as the resident mouse, was placed in a resident home cage (24 cm×17 cm×12 cm) and resident-intruder interactions were videotaped for 10 min. Aggressive behavior of SI mice was characterized by an initial pattern of exploratory activity around the intruder, followed by rearing and tail rattle, accompanied within a few seconds by wrestling and/or a violent biting attacks. The total number of wrestling and attacks during the 10 min observation period was measured as previously described (Pinna et al., 2003, 2005), 60 min after drug administration. For every drug studied, SI mice were first exposed to three behavioral sessions, and then the average of basal aggression level for every single SI mouse was calculated; 2 days later, aggression levels following treatment were tested. Treated animals showing a reduction of the number of attacks less than 30% vs. the respective basal control values were considered as “low- to non-responders.”
Statistical Analyses. Results are presented as means±SEMs unless otherwise indicated. Student's t-test, one-way ANOVA and two-way ANOVA repeated measures followed by Bonferroni post hoc test were performed to analyze experimental data; significance was set at p<0.05. EC50 values were calculated from dose-response curves analyzed by the “quantal dose-response: probits test” using the computer program of Tallarida and Murray equipped with a statistical package (Tallarida and Murray, 1987). Statistical comparisons among the different EC50s were performed with the “cohort package software.” (available at cohort.com).

[6] = tested on: early and late adolescent SI mice; experiment: Locomotor activity (Example 2); conditions: all doses tested, i.p., 60 min before test
[7] = tested on: Progesterone (Prog) levels; experiment: Brain neurosteroid measurements (GC-MS): progesterone; format: in vivo; conditions: SI mice, 1 h
Protocol: as §1

[8] = tested on: Allo sulfate (Allo-S) and other sulfated neurosteroids; experiment: Brain sulfated neurosteroid measurements (GC-MS); format: in vivo; conditions: SI mice; for Allo-S, hippocampus (increase): 60 minutes before sacrifice
Protocol: as §1

[9] = tested on: 5α-dihydroprogesterone (5α-DHP); experiment: Brain neurosteroid measurements (GC-MS): 5α-DHP; format: in vivo; conditions: SI mice, 1 h
Protocol: as §1

SI mice [10] = experiment: Forced swim test (FST); format: in vivo
Protocol: (§2) Forced swim test and tail suspension test. The forced swim test (FST) or a tail suspension test (TST) was performed as previously (30, 31). FST sessions were video-recorded for 6 min and the last 4 min were analyzed (30). TST duration was 6 min. Immobility time was an index of depressive-like behavior.

SI mice [11] = experiment: Tail suspension test (TST); format: in vivo
Protocol: as §2

[12] = Contextual fear conditioning, extinction and extinction retention; format: in vivo, mice; conditions: GH mice; 5 mg/kg i.p.
Protocol: (§3) Contextual fear conditioning. Contextual fear conditioning was performed as previously (25).
(§4) Conditioning trial. Mice were placed in the chamber and exposed for 8 min to a conditioned stimulus and an electric foot-shock (unconditioned stimulus).
(§5) Reactivation. 24 h after conditioning, mice were re-exposed for 5 min to the context for retrieval/reactivation and treated immediately after reactivation.
(§6) Extinction and extinction retention. 24 h after reactivation, mice were re-introduced for 5 min in the chamber once daily for 5 days and freezing time was an index of contextual fear responses. After an interval of 8 days, mice were re-exposed to the chamber to determine extinction retention (25).

SI mice [13] = experiment: as above; format: in vivo; conditions: PPAR-α KO mice; 5 mg/kg i.p.
Protocol: as §3, §4, §5, §6

Pregnenolone (PE) = experiment: Brain neurosteroid measurements (GC-MS): pregnenolone; format: in vivo; conditions: SI mice, 1 h
Protocol: as §1

PPD patients = conditions: intravenous infusions, vs only 9% of placebo-treated; cited from earlier work
TNF-α = conditions: depressed patients, responders [82]; cited from earlier work
[14] = PPAR-α KO SI mice, 10 mg/kg i.p., 60 minutes before test
[15] = SI mice, 10 mg/kg i.p., 1 h before test

CC(C)(C)NC(=O)[C@H]1CC[C@H]2[C@@H]3CC[C@H]4NC(=O)C=C[C@]4(C)[C@H]3CC[C@]12C [FIN, Finasteride]
sedation / effect on locomotor activity (SI mice [1]): do not induce sedation | Allo content in the olfactory bulb vs. PEA-treated mice (block of PEA effect) ([2]; SI mice, 50 mg/kg s.c. 2.5 h before sacrifice): −60% | prevention of the anxiolytic effect of PEA, vs. PEA 10 mg/kg (FIG. 3D) (SI mice [3]; SI mice, 50 mg/kg s.c. 2.5 h before test): −68%

CCCCCc1cc(O)c2c(c1)OC(C)(C)[C@@H]1CCC(C)=C[C@@H]21 [THC, 19-tetrahydrocannabinol]
increase of the synthesis of pregnenolone [4]: 30 fold

CC(C)OC(=O)C(C)(C)Oc1ccc(C(=O)c2ccc(Cl)cc2)cc1 [fenofibrate, Fenofibrate]
sedation / effect on locomotor activity (SI mice [1]): do not induce sedation | time spent in the open arms (increase vs vehicle-treated SI mice) (SI mice [3]; SI mice, 7.5 mg/kg s.c.): +88% | time spent in the open arms (increase vs vehicle-treated SI mice) (SI mice [3]; SI mice, 30 mg/kg s.c.): +442% | time spent in the open arms (increase vs vehicle-treated SI mice) (SI mice [3]; SI mice, 120 mg/kg s.c.): +552%

CNCC[C@H](Oc1ccc(C(F)(F)F)cc1)c1ccccc1 [S-FLX, S-fluoxetine]
reduction in the number of attacks vs. basal value ([5]; late SI mice, 0.75 mg/kg i.p.): −52% | time after which aggression rebounded (duration of anti-aggressive effect) ([5]; single dose 0.375 mg/kg): 1 days | time after which aggression rebounded (duration of anti-aggressive effect) ([5]; single dose 0.75 mg/kg and […]): 3 days | exploratory / locomotor activity [6]: did not reduce

CCCCCCCCCCCCCCCC(=O)NCCO [PEA, N-Palmitoylethanolamine]
Progesterone (Prog) levels, striatum (increase) ([7]; 10 mg/kg i.p.): +356% | Progesterone (Prog) levels, amygdala (increase) ([7]; 20 mg/kg i.p.): +223% | Progesterone (Prog) levels, hippocampus (increase) ([7]; 20 mg/kg i.p.): +3128% | Progesterone (Prog) levels, striatum (increase) ([7]; 20 mg/kg i.p.): +594% | Allo-S, hippocampus (increase) ([8]; 10 mg/kg i.p.): +100% | Allo-S, hippocampus (increase) ([8]; 20 mg/kg i.p.): +104% | other sulfated neurosteroid levels (PE sulfate, PA sulfate, DHEA sulfate) ([8]; olfactory bulb and hippocampus, 5, 10 and 20 mg/kg i.p.): did not affect | sedation / effect on locomotor activity (SI mice [1]): do not induce sedation | reduction of the number of attacks vs. basal value ([5]; early SI mice, 10 mg/kg i.p.): −57% | reduction of the number of attacks vs. basal value ([5]; early SI mice, 15 mg/kg i.p.): −75% | reduction of the number of attacks vs. basal value ([5]; early SI mice, 20 mg/kg i.p.): −86% | EC50 dose, reduction of aggression ([5]; early adolescent SI mice (PND 21)): 8 mg/kg | reduction of the number of attacks vs. basal value ([5]; late SI mice, 10 mg/kg i.p.): −81% | reduction of the number of attacks vs. basal value ([5]; late SI mice, 15 mg/kg i.p.): −84% | reduction of the number of attacks vs. basal value ([5]; late SI mice, 20 mg/kg i.p.): −91% | EC50 dose, reduction of aggression ([5]; late adolescent SI mice (PND 45)): 6.5 mg/kg | duration of anti-aggressive effect ([5]; single dose 10 mg/kg and 15 mg/kg, late SI adolescent mice): less than 3 days | time after which the effect was extinguished ([5]; single dose 20 mg/kg, late SI mice): 5 days | duration of anti-aggressive effect (persisted) ([5]; single dose 20 mg/kg, late adolescent SI mice): 3 days | time after which aggressive behavior was reinstated ([5]; single dose 10, 15, and 20 mg/kg, early SI mice): 3 days | time after which aggressive behavior was reinstated ([5]; single dose 10 and 15 mg/kg, late SI mice): 3 days | 5α-dihydroprogesterone (5α-DHP), hippocampus (increase) ([9]; 10 mg/kg i.p.): +64% | 5α-dihydroprogesterone (5α-DHP), hippocampus (increase) ([9]; 20 mg/kg i.p.): +87% | Allo concentrations, olfactory bulb of GH mice ([2]; GH mice, 20 mg/kg i.p., 60 minutes before sacrifice): does not modify | Allo levels, olfactory bulb of PPAR-α KO mice ([2]; SI PPAR-α KO mice, 10 mg/kg i.p., 1 h before sacrifice): failed to affect | Allo levels in the serum (peripheral levels) ([2]; SI mice, 10 mg/kg i.p., 1 h before sacrifice): failed to change | Allo levels, striatum ([2]; SI mice, 5, 10 and 20 mg/kg i.p., 1 h): failed to change | time of immobility in the FST in GH-control animals (SI mice [10]; GH-control mice, 10 mg/kg): lack of effect | time of immobility in the FST vs vehicle-treated mice (SI mice [10]; PPAR-α KO mice, 10 mg/kg i.p.): +5% | time of immobility in the TST in GH-control animals (SI mice [11]; GH-control mice, 10 mg/kg): lack of effect | time of immobility in the TST vs vehicle-treated mice (SI mice [11]; PPAR-α KO mice, 10 mg/kg i.p.): +12% | contextual fear responses in GH mice [12]: failed to affect contextual fear responses | contextual fear responses in PPAR-α KO mice (SI mice [13]): failed to affect contextual fear responses | anxiolytic effect in GH mice (elevated plus maze) (SI mice [3]; GH mice, 5-10 mg/kg i.p.): had no effect | number of entries in the open arms (vs vehicle) (SI mice [3]; [14]): +6% | time spent in the open arms (vs vehicle) (SI mice [3]; [14]): −1% | Pregnenolone (PE), olfactory bulb (increase) (Pregnenolone (PE); 5 mg/kg i.p.): +50% | Pregnenolone (PE), olfactory bulb (increase) (Pregnenolone (PE); 10 mg/kg i.p.): +69%

CC(=O)[C@H]1CC[C@H]2[C@@H]3CC[C@H]4C[C@H](O)CC[C@]4(C)[C@H]3CC[C@]12C [allopregnanolone]
patients with rapid and long lasting remission of depressive symptoms (PPD patients): 70%

CC(C)(Sc1ccc(CCN(CCCCC2CCCCC2)C(=O)NC2CCCCC2)cc1)C(=O)O [G7, GW7647]
sedation / effect on locomotor activity (SI mice [1]): do not induce sedation | Allo levels, olfactory bulb (increase vs vehicle-treated SI mice) ([2]; SI mice, 10 mg/kg i.p., 1 h): +89% | number of entries in the open arms (change vs vehicle-treated SI mice) (SI mice [3]; [15]): +247% | time spent in the open arms (change vs vehicle-treated SI mice) (SI mice [3]; [15]): +506%

CN(C)CCC[C@@]1(c2ccc(F)cc2)OCc2cc(C#N)ccc21 [escitalopram]
lower expression of TNF-α after successful treatment (TNF-α): 30%

CCC(=O)NC[C@H](Cc1ccc(OCCc2nc(-c3ccccc3)oc2C)cc1)N/C(C)=C\C(=O)c1ccc(C(F)(F)F)cc1 [G6, GW6471]
sedation / effect on locomotor activity (SI mice [1]): do not induce sedation | Allo content in the olfactory bulb vs. PEA-treated mice (block of PEA effect) ([2]; SI mice, 3 mg/kg i.p. […] before sacrifice): −48% | prevention of the anxiolytic effect of PEA, vs. PEA 10 mg/kg (FIG. 3D) (SI mice [3]; SI mice, 3 mg/kg i.p. […] before test): −78%
